Measurements taken from paper PMC12195740, “Discovery of Novel Imidazothiazole-Based Hydroxamic Acid Derivatives as Potent Indoleamine 2,3-Dioxygenase 1 and Histone Deacetylase 6 Dual Inhibitors” (Molecules, 2025).

What was measured:
HDAC1 = HDAC1 (Homo sapiens, UniProt Q13547); assay: HDAC isoform selectivity assay, HDAC1; type: biochemical
HCT-116 cells = assay: Cell viability (MTT) assay, HCT-116; settings: Homo sapiens, HCT-116, 48 h, read-out: Antiproliferative IC50, HCT-116
Procedure: Section S 1.3 Cell viability assays
(§1) Cell Bank at the Chinese Academy of Sciences.
(§2) DMEM and FBS were obtained from Gibco-Thermo (BRL Co. Ltd., USA).
(§3) another 48 h. The cells were stained with 10 μl of MTT at incubator for approximately 4 h. The medium was discarded and replaced by 100 mL DMSO. The O.D. value was read at 570/630 nm with a spectrophotometer.

MCF-7 cells = assay: Cell viability (MTT) assay, MCF-7; settings: Homo sapiens, MCF7, 48 h, read-out: Antiproliferative IC50, MCF-7
Procedure: Section S 1.3 Cell viability assays
as §1, §2, §3

HDAC11 = molecular target: T1, HDAC11 (Homo sapiens, UniProt Q96DB2); assay: HDAC isoform selectivity assay, HDAC11; type: biochemical
T1 sequence (Q96DB2 1-347): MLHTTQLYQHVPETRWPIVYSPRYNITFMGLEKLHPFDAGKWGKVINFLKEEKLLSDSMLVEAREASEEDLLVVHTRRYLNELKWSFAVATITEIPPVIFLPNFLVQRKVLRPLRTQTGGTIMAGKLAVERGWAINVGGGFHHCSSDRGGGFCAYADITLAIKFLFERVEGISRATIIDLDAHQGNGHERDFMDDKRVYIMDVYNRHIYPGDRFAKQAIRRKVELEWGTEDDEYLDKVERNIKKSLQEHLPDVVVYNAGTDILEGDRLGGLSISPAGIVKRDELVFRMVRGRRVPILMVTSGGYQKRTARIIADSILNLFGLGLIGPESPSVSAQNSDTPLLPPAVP

HDAC4 = HDAC4 (Homo sapiens, UniProt P56524); assay: HDAC isoform selectivity assay, HDAC4; type: biochemical; settings: read-out: HDAC4 % inhibition rate at 10 μM
[1] = molecular target: T2, HDAC6 human recombinant enzyme (Homo sapiens, UniProt Q9UBN7); assay: HDAC6 enzyme inhibitory activity assay; type: biochemical; settings: for inhibition at 1 µM: read-out: HDAC6 Inhibition Rate at 1 μM
T2 sequence (Q9UBN7 1-1215): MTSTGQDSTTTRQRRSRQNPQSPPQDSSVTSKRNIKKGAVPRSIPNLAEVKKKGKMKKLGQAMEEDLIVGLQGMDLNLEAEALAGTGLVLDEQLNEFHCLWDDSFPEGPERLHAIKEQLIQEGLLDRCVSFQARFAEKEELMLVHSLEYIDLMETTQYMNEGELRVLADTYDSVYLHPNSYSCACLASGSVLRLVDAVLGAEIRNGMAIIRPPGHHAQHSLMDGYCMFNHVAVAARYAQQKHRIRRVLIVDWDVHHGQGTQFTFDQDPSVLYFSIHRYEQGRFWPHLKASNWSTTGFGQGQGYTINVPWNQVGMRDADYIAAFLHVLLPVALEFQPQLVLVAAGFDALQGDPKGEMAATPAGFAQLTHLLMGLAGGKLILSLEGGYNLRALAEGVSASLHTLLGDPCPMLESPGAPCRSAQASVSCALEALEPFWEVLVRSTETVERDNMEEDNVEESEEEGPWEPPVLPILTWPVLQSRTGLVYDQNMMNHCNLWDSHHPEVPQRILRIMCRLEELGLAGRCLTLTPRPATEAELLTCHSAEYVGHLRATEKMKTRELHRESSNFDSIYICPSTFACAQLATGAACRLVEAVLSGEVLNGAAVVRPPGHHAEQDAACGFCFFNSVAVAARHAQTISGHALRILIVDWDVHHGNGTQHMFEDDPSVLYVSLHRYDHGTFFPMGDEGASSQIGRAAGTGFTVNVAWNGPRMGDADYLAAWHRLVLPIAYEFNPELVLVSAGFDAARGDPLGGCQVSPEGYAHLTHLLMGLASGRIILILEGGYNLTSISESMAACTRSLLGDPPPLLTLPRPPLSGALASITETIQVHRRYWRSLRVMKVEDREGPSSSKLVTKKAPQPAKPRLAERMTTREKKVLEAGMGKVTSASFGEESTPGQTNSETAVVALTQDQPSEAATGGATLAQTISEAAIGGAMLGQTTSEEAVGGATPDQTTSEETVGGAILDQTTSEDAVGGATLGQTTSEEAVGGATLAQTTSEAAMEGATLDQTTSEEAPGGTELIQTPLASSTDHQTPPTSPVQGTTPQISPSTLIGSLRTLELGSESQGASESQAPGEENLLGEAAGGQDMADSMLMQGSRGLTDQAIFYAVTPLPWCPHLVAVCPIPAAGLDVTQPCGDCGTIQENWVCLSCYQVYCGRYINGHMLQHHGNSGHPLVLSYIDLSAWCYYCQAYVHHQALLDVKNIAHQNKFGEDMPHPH
Procedure: Section S1. Biological assays
Section S 1.1. HDAC6 enzyme inhibitory activity assay
Preparation of Master Mix. Trichostatin A in DMSO, Fluorogenic HDAC substrate 3, and HDAC6 human recombinant enzyme were diluted to 20 μM, 200 μM, and 7 ng/uL, respectively, using HDAC Assay Buffer.BSA was dissolved in 1 mL of distilled water to make a BSA solution at a concentration of 1 mg/mL. A certain amount of Fluorogenic HDAC substrate 3, BSA and HDAC Assay Buffer were mixed well to make a master mix, and 40 μL of the master mix was added to each well of a 96-well plate. In the drug administration group, 5 μL of Trichostatin A in DMSO and HDAC6 human recombinant enzyme were added to each well. 5 μL of HDAC Assay Buffer and HDAC6 human recombinant enzyme were added to each well of the blank group, and incubated for 30 min at 37 °C. Finally, 50 μL of undiluted HDAC substrate 3, BSA and HDAC Assay Buffer were added to each well. 50 μL of 2x HDAC Developer was added to each well and incubated at room temperature for 15 min. The samples were read in an enzyme marker with an excitation wavelength in the range of 350-380 nm and an emission light in the range of 440-460 nm.
The values of fluorescence intensities were read and the inhibition rate and IC50 were calculated. […]

SW480 cells = assay: Cell viability (MTT) assay, SW480; settings: Homo sapiens, SW480, 48 h, read-out: Antiproliferative IC50, SW480
Procedure: Section S 1.3 Cell viability assays
as §1, §2, §3

MDA-MB-231 cells = assay: Cell viability (MTT) assay, MDA-MB-231; settings: Homo sapiens, MDA-MB-231, 48 h, read-out: Antiproliferative IC50, MDA-MB-231
Procedure: Section S 1.3 Cell viability assays
as §1, §2, §3

rhIDO1 = molecular target: T3, rhIDO1 (Homo sapiens, UniProt P14902); assay: IDO1 inhibition assay; type: biochemical; settings: means ± S.D. of three independent experiments
T3 construct: purchased
Procedure: Section S1. Biological assays […]
Section S 1.2 IDO1 inhibition assays
IDO1 inhibition assays were carried out according to the manufacturers’ procedures, as described previously. The standard assay mixture (100 μL) contained 50 mM of potassium phosphate buffer (pH = 6.5), 10 mM ascorbate, 10 μM methylene blue, 100 μg/mL catalase, 1 mM L-tryptophan and 10 μg/mL of rhIDO1. The plate was incubated at 37 °C in a dark environment, and reactions were terminated after 60 min by the addition of 50 μL of fluorogenic developer solution and further incubated at 45 °C in dark for 3 h. Then, the plate was allowed to cool to room temperature for at least 1 h. After centrifugation at 1500g for 5 min at 20 °C, the fluorescence […]
M1000 Pro, Tecan US, Morrisville, NC) in an end-point mode. […]

[2] = General toxicity in CT26 tumor-bearing BALB/c mice (body weight, H&E of organs); type: in vivo; settings: 150 mg/kg ip every 3 days for 21 days, versus vehicle group
Procedure: After that, fixed cells were washed with PBS. Then, cells were isolated by centrifugation and stained with propidium iodide (KeyGEN BioTECH, China) for 30 min. The samples were measured using flow cytometry and analyzed by Flowjo software.
Section S 1.6 Western blot assay […]
earlier were obtained by lysing the cells in ice-cold RIPA buffer with protease and phosphatase inhibitor and stored at -20°C for future use. The protein concentrations were quantified by the Bradford method (Bio-Rad) using a Multimode Varioscan instrument (Thermo Fischer Scientific). […]
and transferred to a polyvinylidene difluoride (PVDF) membrane (Amersham Biosciences). After the membrane was blocked at room temperature for 2 h in blocking solution, primary antibody was added and incubated at 4°C overnight. Ac-α-tubulin, Ac-histone H3 and GAPDH antibodies were purchased from Imgenex, USA. After three TBST washes, the membrane was incubated with corresponding horseradish peroxidase-labeled secondary antibody (1:2,000) (Santa Cruz) at room temperature for 1 h. Membranes were washed with TBST three times for 15 min and the protein bands were detected with chemiluminescence reagent (Thermo Fischer Scientific). The X-ray films were developed using developer and fixed with fixer solution.
Section S 1.7 In vivo antitumor efficacy […]
line CT-26 in BALB/c mice as described previously. Five-week-old male BALB/c mice were purchased from the Shanghai Ling Chang biotechnology company (China), and tumors were induced through subcutaneous injection of 1 × 10^7 cells in 100 µL of sterile PBS into the dorsal region. The animals were divided into four groups, starting on the second day. When the tumors reached a volume of 50−100 mm3 in all mice, the first group was administered intraperitoneally with an equivalent volume of 5% dextrose as the vehicle control. The second group was treated with […]
treated with complex 10e at doses of 150 mg/kg body weight once every 3 days for 3 weeks, respectively. All compounds were dissolved in vehicle. Tumor volumes and body weights were […]

T3 sequence (P14902 whole entry): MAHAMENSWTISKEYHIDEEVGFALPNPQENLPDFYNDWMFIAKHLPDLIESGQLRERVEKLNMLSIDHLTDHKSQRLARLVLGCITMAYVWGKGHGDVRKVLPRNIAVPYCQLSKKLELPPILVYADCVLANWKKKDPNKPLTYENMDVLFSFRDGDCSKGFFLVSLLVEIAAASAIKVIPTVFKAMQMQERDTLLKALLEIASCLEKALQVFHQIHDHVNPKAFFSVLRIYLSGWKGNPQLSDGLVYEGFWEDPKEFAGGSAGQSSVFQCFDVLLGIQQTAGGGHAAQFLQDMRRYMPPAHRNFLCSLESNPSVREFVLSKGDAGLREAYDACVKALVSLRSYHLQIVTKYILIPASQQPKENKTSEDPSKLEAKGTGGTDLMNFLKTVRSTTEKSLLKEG
Sequence of HDAC1 (Q13547 whole entry, species assumed, canonical isoform): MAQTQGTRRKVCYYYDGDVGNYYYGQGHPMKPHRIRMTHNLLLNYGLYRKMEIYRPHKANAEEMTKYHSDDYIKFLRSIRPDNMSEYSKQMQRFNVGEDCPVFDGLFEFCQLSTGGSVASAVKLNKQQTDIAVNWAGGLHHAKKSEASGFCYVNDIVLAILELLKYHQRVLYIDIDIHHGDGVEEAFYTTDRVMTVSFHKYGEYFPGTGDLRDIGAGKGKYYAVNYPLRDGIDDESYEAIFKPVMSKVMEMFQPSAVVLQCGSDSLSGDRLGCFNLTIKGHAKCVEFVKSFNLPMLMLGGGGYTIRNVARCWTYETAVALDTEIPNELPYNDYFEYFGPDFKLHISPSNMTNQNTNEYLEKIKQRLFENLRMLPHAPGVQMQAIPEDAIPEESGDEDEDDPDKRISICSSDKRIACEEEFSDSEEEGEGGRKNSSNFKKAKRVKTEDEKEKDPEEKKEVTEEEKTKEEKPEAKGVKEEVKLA
Sequence of HDAC4 (P56524 whole entry, species assumed, canonical isoform): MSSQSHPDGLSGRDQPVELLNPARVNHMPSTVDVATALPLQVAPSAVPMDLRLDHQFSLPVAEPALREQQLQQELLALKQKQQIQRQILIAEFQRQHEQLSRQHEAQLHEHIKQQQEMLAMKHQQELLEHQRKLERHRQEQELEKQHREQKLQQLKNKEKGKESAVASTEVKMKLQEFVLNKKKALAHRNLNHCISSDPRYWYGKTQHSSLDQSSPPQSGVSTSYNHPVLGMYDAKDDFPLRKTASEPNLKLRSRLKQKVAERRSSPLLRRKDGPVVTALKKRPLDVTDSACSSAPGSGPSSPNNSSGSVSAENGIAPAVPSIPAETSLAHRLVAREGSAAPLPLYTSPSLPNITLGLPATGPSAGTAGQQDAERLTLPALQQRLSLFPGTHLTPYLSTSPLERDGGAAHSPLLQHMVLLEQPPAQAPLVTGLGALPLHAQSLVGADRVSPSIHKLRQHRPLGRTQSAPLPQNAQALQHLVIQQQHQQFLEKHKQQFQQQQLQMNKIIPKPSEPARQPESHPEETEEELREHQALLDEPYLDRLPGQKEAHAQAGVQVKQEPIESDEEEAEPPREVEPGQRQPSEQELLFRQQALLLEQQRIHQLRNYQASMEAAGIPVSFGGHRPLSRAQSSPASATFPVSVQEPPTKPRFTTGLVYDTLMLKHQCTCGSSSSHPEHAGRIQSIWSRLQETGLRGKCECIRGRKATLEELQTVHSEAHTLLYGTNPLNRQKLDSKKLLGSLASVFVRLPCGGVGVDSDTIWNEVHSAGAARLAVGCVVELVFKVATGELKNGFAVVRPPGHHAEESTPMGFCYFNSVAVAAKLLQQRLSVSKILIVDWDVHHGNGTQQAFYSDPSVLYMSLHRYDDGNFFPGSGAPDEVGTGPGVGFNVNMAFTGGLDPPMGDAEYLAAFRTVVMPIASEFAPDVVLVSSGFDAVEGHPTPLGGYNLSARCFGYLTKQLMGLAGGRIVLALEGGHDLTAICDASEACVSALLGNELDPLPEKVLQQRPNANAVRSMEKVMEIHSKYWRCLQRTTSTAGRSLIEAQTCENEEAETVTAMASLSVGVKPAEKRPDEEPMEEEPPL

SMILES	IC50 (HCT-116 cells)	IC50 (MCF-7 cells)	inhibition at 1 µM [1]	IC50 (SW480 cells)	IC50 (MDA-MB-231 cells)	IC50 (rhIDO1)	also measured
O=C(NO)c1ccc(CNC(=O)c2cnc3scc(-c4ccc(Br)cc4)n23)cc1 [Compound 7a, 3-(4-Bromophenyl)-N-[4-(hydroxycarbamoyl)benzyl]imidazo[2,1-b]thiazole-5-carboxamide]	> 80 µM	> 80 µM	85.6%	> 80 µM	> 80 µM	530 ± 110 nM	IC50 (HDAC1): 2450 nM; IC50 (HDAC11): 6.06 µM; inhibition at 10 µM (HDAC4): 31.5%; IC50 [1]: 84.4 nM; Selectivity Index (SI) = HDAC1 IC50 value/HDAC6 IC50 value ([1]; HDAC1/HDAC6): 29.00
Cc1ccc(-c2csc3ncc(C(=O)NCc4ccc(C(=O)NO)cc4)n23)cc1 [Compound 7b, N-[4-(hydroxycarbamoyl)benzyl]-3-(p-tolyl)imidazo[2,1-b]thiazole-5-carboxamide]	–	–	48%	–	–	960 ± 130 nM	–
NS(=O)(=O)NCCNc1nonc1C(=NO)Nc1ccc(F)c(Br)c1 [Epacadostat, reference compound]	> 80 µM	> 80 µM	–	> 80 µM	> 80 µM	–	–
O=C(CCCCCCC(=O)Nc1ccccc1)NO [SAHA, reference compound]	–	–	91.7%	–	–	–	influence on body weight of the mice [2]: no obvious influence

More lines, main results first:

IC50 (HCT-116 cells)	IC50 (MCF-7 cells)	inhibition at 1 µM [1]	IC50 (SW480 cells)	IC50 (MDA-MB-231 cells)	IC50 (rhIDO1)	SMILES	also measured
–	–	22.4%	–	–	1870 ± 60 nM	O=C(CCNc1ccc(NC(=O)c2cnc3scc(-c4ccc(Br)cc4)n23)cc1)NO [Compound 10a, 3-(4-Bromophenyl)-N-{4-[(3-(hydroxyamino)-3-oxopropyl)amino]phenyl}imidazo[2,1-b]thiazole-5-carboxamide]	–
–	–	25.2%	–	–	1060 ± 20 nM	O=C(CCCNc1ccc(NC(=O)c2cnc3scc(-c4ccc(Br)cc4)n23)cc1)NO [Compound 10b, 3-(4-Bromophenyl)-N-{4-[(4-(hydroxyamino)-4-oxobutyl)amino)phenyl}imidazo[2,1-b]thiazole-5-carboxamide]	–
–	–	19.4%	–	–	340 ± 90 nM	O=C(CCCCNc1ccc(NC(=O)c2cnc3scc(-c4ccc(Br)cc4)n23)cc1)NO [Compound 10c, 3-(4-Bromophenyl)-N-{4-[(5-(hydroxyamino)-5-oxopentyl)amino)phenyl}imidazo[2,1-b]thiazole-5-carboxamide]	–
24.4 ± 4.78 µM	52.9 ± 6.95 µM	46.2%	> 80 µM	> 80 µM	120 ± 10 nM	O=C(CCCCCNc1ccc(NC(=O)c2cnc3scc(-c4ccc(Br)cc4)n23)cc1)NO [Compound 10d]	–
–	–	28.8%	–	–	6160 ± 830 nM	Cc1ccc(-c2csc3ncc(C(=O)Nc4ccc(NCC(=O)NO)cc4)n23)cc1 [Compound 10f, N-{4-[(2-(hydroxyamino)-2-oxoethyl)amino]phenyl}-3-(p-tolyl)imidazo[2,1-b]thiazole-5-carboxamide]	–
–	–	31.2%	–	–	2070 ± 290 nM	Cc1ccc(-c2csc3ncc(C(=O)Nc4ccc(NCCC(=O)NO)cc4)n23)cc1 [Compound 10g, N-{4-[(3-(hydroxyamino)-3-oxopropyl)amino]phenyl}-3-(p-tolyl)imidazo[2,1-b]thiazole-5-carboxamide]	–
–	–	33.7%	–	–	1780 ± 470 nM	Cc1ccc(-c2csc3ncc(C(=O)Nc4ccc(NCCCC(=O)NO)cc4)n23)cc1 [Compound 10h, N-{4-[(4-(hydroxyamino)-4-oxobutyl)amino]phenyl}-3-(p-tolyl)imidazo[2,1-b]thiazole-5-carboxamide]	–
–	–	35.5%	–	–	590 ± 110 nM	Cc1ccc(-c2csc3ncc(C(=O)Nc4ccc(NCCCCC(=O)NO)cc4)n23)cc1 [Compound 10i, N-{4-[(5-(hydroxyamino)-5-oxopentyl)amino]phenyl}-3-(p-tolyl)imidazo[2,1-b]thiazole-5-carboxamide]	–
> 80 µM	> 80 µM	40.2%	> 80 µM	> 80 µM	380 ± 50 nM	Cc1ccc(-c2csc3ncc(C(=O)Nc4ccc(NCCCCCC(=O)NO)cc4)n23)cc1 [Compound 10j, N-{4-[(6-(hydroxyamino)-6-oxohexyl)amino]phenyl}-3-(p-tolyl)imidazo[2,1-b]thiazole-5-carboxamide]	–
